# From publication PMC9697025, “Discovery of N-Containing (-)-Borneol Esters as Respiratory Syncytial Virus Fusion Inhibitors” (Pharmaceuticals, 2022)
# Legend:
# [1] = system: RSV A strain A2; experiment: In vitro antiviral assay against RSV A strain A2 in HEp-2 cells (ELISA, virus titer); assay type: cell-based, respiratory syncytial virus; details: for IC50: human respiratory syncytial virus, HEp-2, 50% decrease in virus replication, RSV A strain A2 in HEp-2 cells, mean ± SD; for SI: selectivity index, CC50/IC50 ratio, RSV A2 / HEp-2
# [2] = MTT cytotoxicity assay with non-infected HEp2 cells; details: human
# [3] = system: rVSV-ΔG-EboV-GP; details: CC50/IC50EboV-GP, HEK293T cells ref 12,13; cited from earlier work
# [4] = system: rVSV-ΔG-MarV-GP; details: CC50/IC50MarV-GP, HEK293T cells ref 12,13; cited from earlier work
# [5] = system: A/Puerto Rico/8/34 (H1N1) virus; set-up: method as in PMID 30108810; details: CC50/IC50H1N1, A/Puerto Rico/8/34 (H1N1) ref 15; cited from earlier work
Compound,IC50 [1],SI [1],CC50 at 24 h [2],SIEboV-GP [3],SIMarV-GP [4],SIH1N1 [5]
CN(C)CC(=O)O[C@@H]1C[C@@H]2CC[C@@]1(C)C2(C)C [Compound 3a],134 ± 19.5 µM,4,497 ± 53.2 µM,–,–,–
CN(C)CCCC(=O)O[C@@H]1C[C@@H]2CC[C@@]1(C)C2(C)C [Compound 3c],23.9 ± 3.7 µM,10,228 ± 23.5 µM,–,–,–
CCN(CC)CC(=O)O[C@@H]1C[C@@H]2CC[C@@]1(C)C2(C)C [Compound 4a],355 ± 51.1 µM,2,669 ± 56.4 µM,–,–,–
CCN(CC)CCC(=O)O[C@@H]1C[C@@H]2CC[C@@]1(C)C2(C)C [Compound 4b],99.5 ± 8.7 µM,4,391 ± 23.1 µM,–,–,–
CCN(CC)CCCC(=O)O[C@@H]1C[C@@H]2CC[C@@]1(C)C2(C)C [Compound 4c],30.5 ± 2.9 µM,5,152 ± 12.1 µM,–,–,–
CC1(C)[C@H]2CC[C@]1(C)[C@H](OC(=O)CN1CCCCC1)C2 [Compound 6a],41.9 ± 3.1 µM,3,129 ± 9.8 µM,–,–,–
CC1(C)[C@H]2CC[C@]1(C)[C@H](OC(=O)CCCN1CCCCC1)C2 [Compound 6c],39 ± 4.1 µM,3,117 ± 11.1 µM,–,–,–
CC1CCN(CC(=O)O[C@@H]2C[C@@H]3CC[C@@]2(C)C3(C)C)CC1 [Compound 7a],109 ± 10.7 µM,4,399 ± 4.8 µM,–,–,–
CC1CCN(CCC(=O)O[C@@H]2C[C@@H]3CC[C@@]2(C)C3(C)C)CC1 [Compound 7b],6.2 ± 2.1 µM,26,159 ± 17.1 µM,–,–,–
CC1CCN(CCCC(=O)O[C@@H]2C[C@@H]3CC[C@@]2(C)C3(C)C)CC1 [Compound 7c],19.9 ± 2.3 µM,3,59.1 ± 4.8 µM,–,–,–
CC1(C)[C@H]2CC[C@]1(C)[C@H](OC(=O)CN1CCCCCC1)C2 [Compound 8a],61.3 ± 3.2 µM,1,85.2 ± 5.6 µM,–,–,–
CC1(C)[C@H]2CC[C@]1(C)[C@H](OC(=O)CCN1CCCCCC1)C2 [Compound 8b],97.6 ± 8.9 µM,3,345 ± 24.6 µM,–,–,–
CC1(C)[C@H]2CC[C@]1(C)[C@H](OC(=O)CCCN1CCCCCC1)C2 [Compound 8c],34.2 ± 1.1 µM,5,159 ± 12.4 µM,–,–,–
CN1CCN(CC(=O)O[C@@H]2C[C@@H]3CC[C@@]2(C)C3(C)C)CC1 [Compound 9a],13.9 ± 2.4 µM,19,267 ± 16.5 µM,–,–,–
CN1CCN(CCC(=O)O[C@@H]2C[C@@H]3CC[C@@]2(C)C3(C)C)CC1 [Compound 9b],17.2 ± 1.9 µM,10,169 ± 12.1 µM,–,–,–
CN1CCN(CCCC(=O)O[C@@H]2C[C@@H]3CC[C@@]2(C)C3(C)C)CC1 [Compound 9c],5.1 ± 0.8 µM,39,198 ± 13.6 µM,–,–,–
CCN1CCN(CC(=O)O[C@@H]2C[C@@H]3CC[C@@]2(C)C3(C)C)CC1 [Compound 10a],57.7 ± 2.2 µM,4,217 ± 18.9 µM,–,–,–
CCN1CCN(CCC(=O)O[C@@H]2C[C@@H]3CC[C@@]2(C)C3(C)C)CC1 [Compound 10b],5.9 ± 1.4 µM,20,117 ± 11.7 µM,–,–,–
CCN1CCN(CCCC(=O)O[C@@H]2C[C@@H]3CC[C@@]2(C)C3(C)C)CC1 [Compound 10c],9.8 ± 2.5 µM,21,208 ± 21.4 µM,–,–,–

Compound,IC50 [1],SI [1],CC50 at 24 h [2],SIEboV-GP [3],SIMarV-GP [4],SIH1N1 [5]
CC1(C)[C@H]2CC[C@]1(C)[C@H](OC(=O)CN1CCN(Cc3ccccc3)CC1)C2 [Compound 11a],21.6 ± 2.6 µM,2,51.3 ± 4.9 µM,–,–,–
CC1(C)[C@H]2CC[C@]1(C)[C@H](OC(=O)CCN1CCN(Cc3ccccc3)CC1)C2 [Compound 11b],46.8 ± 7.2 µM,1,49.4 ± 5.6 µM,–,–,–
CC1(C)[C@H]2CC[C@]1(C)[C@H](OC(=O)CCCN1CCN(Cc3ccccc3)CC1)C2 [Compound 11c],25.1 ± 3.5 µM,3,82.8 ± 7.9 µM,–,–,–
"CC1(C)[C@H]2CC[C@]1(C)[C@H](OC(=O)CN1CCSCC1)C2 [Compound 12a, (1S,2R,4S)-1,7,7-Trimethylbicyclo [2.2.1]heptan-2-yl 2-thiomorpholinoacetate]",69.6 ± 16.2 µM,2,126 ± 10.5 µM,–,–,–
"CC1(C)[C@H]2CC[C@]1(C)[C@H](OC(=O)CCN1CCSCC1)C2 [Compound 12b, (1S,2R,4S)-1,7,7-trimethylbicyclo [2.2.1]heptan-2-yl 3-thiomorpholinopropanoate]",96.3 ± 3.5 µM,1,86 ± 7.4 µM,–,–,–
"CC1(C)[C@H]2CC[C@]1(C)[C@H](OC(=O)CCCN1CCSCC1)C2 [Compound 12c, (1S,2R,4S)-1,7,7-trimethylbicyclo [2.2.1]heptan-2-yl 4-thiomorpholinobutanoate]",75.3 ± 7.9 µM,1,56.5 ± 3.8 µM,–,–,–
"CC1(C)[C@H]2CC[C@]1(C)[C@H](OC(=O)CN1CCC(Cc3ccccc3)CC1)C2 [Compound 13a, (1S,2R,4S)-1,7,7-trimethylbicyclo [2.2.1]heptan-2-yl 2-(4-benzylpiperidin-1-yl)acetate]",21.6 ± 1.8 µM,5,116 ± 13.4 µM,–,–,–
"CC1(C)[C@H]2CC[C@]1(C)[C@H](OC(=O)CCN1CCC(Cc3ccccc3)CC1)C2 [Compound 13b, (1S,2R,4S)-1,7,7-trimethylbicyclo [2.2.1]heptan-2-yl 3-(4-benzylpiperidin-1-yl)propanoate]",14.9 ± 1 µM,2,25.5 ± 11.4 µM,–,–,–
"CC1(C)[C@H]2CC[C@]1(C)[C@H](OC(=O)CCCN1CCC(Cc3ccccc3)CC1)C2 [Compound 13c, (1S,2R,4S)-1,7,7-trimethylbicyclo [2.2.1]heptan-2-yl 4-(4-benzylpiperidin-1-yl)butanoate]",7.3 ± 0.6 µM,5,40.2 ± 5.1 µM,–,–,–
"CC1(C)[C@H]2CC[C@]1(C)[C@H](OC(=O)CN1CCN(c3ccccc3)CC1)C2 [Compound 14a, (1S,2R,4S)-1,7,7-Trimethylbicyclo [2.2.1]heptan-2-yl 2-(4-phenylpiperazin-1-yl)acetate]",4.6 ± 1.1 µM,6,26.4 ± 3.8 µM,–,–,–
"CC1(C)[C@H]2CC[C@]1(C)[C@H](OC(=O)CCCN1CCN(c3ccccc3)CC1)C2 [Compound 14c, (1S,2R,4S)-1,7,7-trimethylbicyclo [2.2.1]heptan-2-yl 4-(4-phenylpiperazin-1-yl)butanoate]",12 ± 2 µM,2,23.9 ± 8.7 µM,–,–,–
"CC1(C)[C@H]2CC[C@]1(C)[C@H](OC(=O)CN1CCN(c3ccccc3F)CC1)C2 [Compound 15a, (1S,2R,4S)-1,7,7-trimethylbicyclo [2.2.1]heptan-2-yl 2-(4-(2-fluorophenyl)piperazin-1-yl)acetate]",2.7 ± 0.7 µM,10,27.5 ± 3.8 µM,–,–,–
"CC1(C)[C@H]2CC[C@]1(C)[C@H](OC(=O)CCN1CCN(c3ccccc3F)CC1)C2 [Compound 15b, (1S,2R,4S)-1,7,7-trimethylbicyclo [2.2.1]heptan-2-yl 3-(4-(2-fluorophenyl)piperazin-1-yl)propanoate]",8.2 ± 0.8 µM,2,20.1 ± 12.1 µM,–,–,–
"CC1(C)[C@H]2CC[C@]1(C)[C@H](OC(=O)CCCN1CCN(c3ccccc3F)CC1)C2 [Compound 15c, (1S,2R,4S)-1,7,7-trimethylbicyclo [2.2.1]heptan-2-yl 4-(4-(2-fluorophenyl)piperazin-1-yl)butanoate]",14.7 ± 2.1 µM,2,27.8 ± 7.4 µM,–,–,–
CN1CCN(CC(=O)OC2CC3CCC2(C)C3(C)C)CC1 (stereo not drawn) [I (n=1)],–,–,–,^b SIEboV-GP = 46,^a SIMarV-GP = 14,^c SIH1N1 = 23
CN1CCN(CCC(=O)OC2CC3CCC2(C)C3(C)C)CC1 (stereo not drawn) [I (n=2)],–,–,–,^b SIEboV-GP = 870,^a SIMarV-GP = 20,^c SIH1N1 = 25
CCN1CCN(CC(=O)OC2CC3CCC2(C)C3(C)C)CC1 (stereo not drawn) [II (n=1)],–,–,–,^b SIEboV-GP = 80,^a SIMarV-GP = 29,^c SIH1N1 = 16
CCN1CCN(CCC(=O)OC2CC3CCC2(C)C3(C)C)CC1 (stereo not drawn) [II (n=2)],–,–,–,^b SIEboV-GP = 170,^a SIMarV-GP = 47,^c SIH1N1 = 12
